SMILES strings stand for the structures.

One test relates to tsFT210 cells. Briefly: Flow cytometry, G2/M arrest in tsFT210 cells. The class given is cell-based, mouse. Conditions: 2.5 to 10 μM, 6 hours after release at 32.0° C. The procedure:
Oncogene 18:6989-6996, Th′ng JP, Wright PS, Hamaguchi J, Lee MG, Norbury CJ, Nurse P and Bradbury EM (1990) The FT210 cell line is a mouse G2 phase mutant with a temperature-sensitive CDC2 gene product. Cell 63:313-324.). Cell proliferation was blocked at G2 phase by incubation at 39.4° C. for 17 h. The synchronized cells were then released by re-incubating at 32.0° C. and treated immediately with 0-10 μM SR-7, 1 μM nocodazole or 100 EM SC-ααδ9, respectively, to probe for G2/M arrest. […] The harvested cells were stained with a solution containing 50 μg/ml propidium iodide and 250 μg/ml RNase A. Flow cytometry analysis was conducted with a Becton Dickinson FACS Star (Franklin Lakes, N.J.). […] This G2/M retention at 4C is probably due to the extended cell cycle blockage at 39.4° C. (Osada H, Cui CB, Onose R and Hanaoka F (1997) Screening of cell cycle inhibitors from microbial metabolites by a bioassay using a mouse cdc2 mutant cell line, tsFT210. Bioorg Med Chem 5:193-203). […] SC-ααδ9 is an inhibitor of the Cdc25 family of phosphatases that controls cell cycle checkpoints (Rice RL, Rusnak JM, Yokokawa F, Yokokawa S, Messner DJ, Boynton AL, Wipf P and Lazo JS (1997) A targeted library of small molecule, tyrosine and dual specificity phosphatase inhibitors derived from a rational core design and random side chain variation. Biochemistry 36:15965-15974).
(In general: Flow cytometry measures light scatter and fluorescence of single cells or particles in a stream.)

A further test deals with T1, Cdk1 (Homo sapiens, UniProt P06493).
T1 construct: Lysates from asynchronous MCF-7 cells were immunoprecipitated with anti Cdk1 antibody coupled to agarose; endogenous in cells; host or cells: MCF-7 human breast cancer cells (immunoprecipitate)
Briefly: Cdk1 kinase activity assay (histone H1 phosphorylation). To be noted: immunoprecipitate from MCF-7 cells, 20 min. The class given is biochemical. The protocol: tsFT210 cells were harvested using the same procedure for cell synchronizing and drug exposure as described above for the G2/M flow cytometric analysis. The protein lysates were analyzed by Western blotting for Cdk1 as described previously (Tamura K, Southwick EC, Kerns J, Rosi K, Carr BI, Wilcox C and Lazo JS (2000) Cdc25 inhibition and cell cycle arrest by a synthetic thioalkyl vitamin K analogue. Cancer Res 60:1317-1325.). The inventors used Cdk1 isolated from human MCF-7 cells to assay for in vitro inhibition of enzyme activity because of available antibodies and convenience. Asynchronous cells grown at 37° C. in 5% CO2 in DMEM containing 10% fetal bovine serum were treated with lysis buffer and harvested as previously described (Vogt A, Wang AS, Johnson CS, Fabisiak JP, Wipf P and Lazo JS (2000) In vivo antitumor activity and induction of insulin-like growth factor-1 resistant apoptosis by SC-ααδ9. J Pharmacol Exptl Therap 292:530-537.). […] Histone H1 was separated from other proteins by SDS-PAGE and analyzed for incorporation of radioactive phosphate with a Molecular Dynamics STORM 860 Phospholmager (Sunnyvale, CA). […]

In another test the test system is Bcl-2. As to the kind of experiment: Bcl-2 phosphorylation immunoblot in MCF-7 cells. It is filed as cell-based, human. Conditions: 3 or 10 μM. The text has this:
Attempts to determine the phosphorylation status of Bcl-2 in tsFT210 cells using two different antibodies were unsuccessful due to the antibodies' inability to detect mouse Bcl-2 or the lack of specificity. Therefore, phosphorylated and non-phosphorylated Bcl-2 was detected in lysates from human MCF-7 cells (American Type Culture Collection, Manassas, Va.) treated with microtubule perturbing agents. Equal amounts of protein were separated by electrophoresis on 15% SDS-PAGE followed by immunoblotting with an antihuman Bcl-2 antibody (sc-509, Santa Cruz Biotechnology). Positive antibody reactions were visualized using peroxidase-conjugated secondary antibodies (Jackson ImmunoResearch, West Grove, Pa.) and an enhanced chemiluminescence detection system (Renaissance, NEN, Boston, Mass.) according to manufacturer's instructions.
All known microtubule disrupting compounds cause hyperphosphorylation of the antiapoptotic protein Bcl-2 (Haldar S, Jena N and Croce CM (1995) Inactivation of bcl-2 by phospliorylation. Proc Natl Acad Sci USA 92:4507-4511 and Basu A and Haldar S (1998) Microtubule-damaging drugs trigger bcl2 phosphorylation-requirement of phosphorylation on both serine-70 and serine-87 residues of bcl2 protein. Intl J Oncol 13:659-664). Therefore, the phosphorylation status of Bcl-2 in cells treated with various compounds including SR-7 was examined and the results are illustrated in FIG. 29. Proteins from lysates of MCF-7 cells treated with 0.5 μM paclitaxel, 1 μM nocodozole, 1,μM vincristine and, 3 or 10 μM SR-7 were separated by electrophoresis on 15% SDS-PAGE followed by immunoblotting with an antibody to Bcl-2. The phosphorylated form of Bcl-2 (P) appeared as the upper bands and the underphosphorylated form (U) was the lower band.
(Immunoblotting shows a protein as a band on a membrane.)

T1 sequence (P06493 whole entry): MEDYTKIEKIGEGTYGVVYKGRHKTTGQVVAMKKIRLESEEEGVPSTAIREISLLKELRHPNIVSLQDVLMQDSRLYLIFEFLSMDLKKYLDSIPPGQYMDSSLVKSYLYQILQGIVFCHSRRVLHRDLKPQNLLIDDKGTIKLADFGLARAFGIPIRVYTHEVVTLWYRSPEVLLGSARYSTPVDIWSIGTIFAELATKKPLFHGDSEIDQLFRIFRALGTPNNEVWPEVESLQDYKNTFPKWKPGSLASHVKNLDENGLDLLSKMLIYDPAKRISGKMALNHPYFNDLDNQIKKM
T1 sequence (P14635 whole entry partner): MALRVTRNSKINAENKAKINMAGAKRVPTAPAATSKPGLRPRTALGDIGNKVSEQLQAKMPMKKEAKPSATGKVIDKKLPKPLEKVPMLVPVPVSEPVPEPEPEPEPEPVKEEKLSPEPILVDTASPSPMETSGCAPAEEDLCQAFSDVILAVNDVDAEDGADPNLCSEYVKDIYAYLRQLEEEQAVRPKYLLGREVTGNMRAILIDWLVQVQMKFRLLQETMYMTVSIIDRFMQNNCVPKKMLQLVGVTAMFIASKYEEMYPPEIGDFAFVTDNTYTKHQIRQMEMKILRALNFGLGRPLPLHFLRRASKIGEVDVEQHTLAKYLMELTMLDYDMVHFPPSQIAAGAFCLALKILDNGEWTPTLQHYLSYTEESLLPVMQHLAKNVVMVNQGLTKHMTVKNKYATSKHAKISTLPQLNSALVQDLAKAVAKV

`O=C1C=CC2(Oc3cccc4cccc(c34)O2)c2cccc(OCc3ccco3)c21` [SR-7, 8-(furan-2-ylmethoxy)-1-oxo-1,4-dihydronaphthalene-4-spiro-2′-naphto [1″,8″-de][1′,3′] dioxin]: the results for the “G2/M cell cycle transition” value with tsFT210 cells and in the test on tsFT210 cells (listed as 27) were “concentration-dependent arrest in the G2/M phase” and “can arrest mammalian cells in the G2/M phase”, respectively. Also, at Cdk1, the “direct inhibition of Cdk1 kinase activity” value is on record as “not directly inhibited”. Besides, the Bcl-2 phosphorylation result in the test with Bcl-2 is “failed to generate significant hyperphosphorylated Bcl-2”.

These data come from US6673937B2, “Syntheses and methods of use of new antimitotic agents” (The University of Pittsburgh, priority 2000, dated 2004).
